Reference: article PMC5381078, “Carboxylate derivatives of tributyltin (IV) complexes as anticancer and antileishmanial agents” (DARU Journal of Pharmaceutical Sciences, 2017)
≈ marks a conversion by molar mass, not a printed value. Numbered stars: 1 amine (or outer) side, 2 acyl side, 3 side chain; on linkers, the order of the positions; unused ones are H or OH. Bridge positions count the residues as written; N and C are the ends. Square brackets hold non-standard residues; d marks the D form. Peptide text beside a SMILES is read from it. X1 = CC(C)CCCCCCCCC[C@H](CC(=O)[*:1])O[*:2]

How the values were obtained:
HepG2 cell line = assay: Cytotoxicity against HepG2 cell line (SRB assay); assay type: cell-based, human; settings: for HepG2 % growth inhibition: 20 μg/mL
Protocol: Cytotoxicity was further evaluated against HepG2 cell line by sulforhodamine B (SRB) colorimetric assay. Dulbecco's Modified Eagle Medium (DMEM) supplemented with 10% FBS, 100 μg/mL streptomycin sulfate, 100 IU/mL penicillin G sodium and 0.25 μg/mL amphotericin B was used to culture HepG2 cells in CO2 (5%) incubator (Panasonic, Japan MCO-18 AC-PE) at 37 °C. An aliquot of 20 μL (1% DMSO in PBS) of samples was added to 180 μL of cell culture at an assay density of 1x10^5 cells/mL in 96-well plate. The plate was incubated at 37 °C for 72 h in CO2 incubator. Final concentration of compounds/standard was 20 μg/mL. Doxorubicin and 1% v/v DMSO in PBS ere used as positive and negative controls respectively. An equivalent number of cells in twelve wells of 96-well plate were incubated for 1 h at 37 °C and labeled as day zero control. Later, cells were fixed by adding 50 μL of cold 20% w/v TCA for 1 h at 4 °C. These were washed with tap water, air dried and stained with 50 μL of 0.057% w/v SRB in 1% v/v acetic acid for 30 min at room temperature. Cells were again washed with 1% v/v acetic acid, dried overnight and 200 μL of 10 mM Tris base (pH 10) was used to solubilize the bound dye for 1 h. Absorbance was measured at 515 nm using a microplate reader. Percentage of growth inhibition was calculated as: % inhibition = 100 – [(As – Ao) / (An – Ao) × 100], where, Ao, As and An are absorbance of day zero control, samples and negative control respectively. IC50 values were determined using 3-fold dilutions of the samples.

THP-1 cell line = assay: Cytotoxicity against THP-1 cell line (MTT assay); assay type: cell-based, human; settings: 72 h; for THP-1 % growth inhibition: 20 μg/mL
Protocol: Cytotoxicity of tributyltin (IV) compounds against THP-1 cell line was determined by 3-(4,5-dimethylthiazol-2-yl)-2,5-diphenyl tetrazolium bromide (MTT) assay. THP-1 cells were cultured in complete growth medium comprising RPMI-1640 (pH 7.4) supplemented with 2.2 g/L NaHCO3 and 10% v/v heat inactivated fetal bovine serum (HIFBS). An aliquot of 20 μL of samples in 1% DMSO in PBS and 180 μL of THP-1 cells were mixed in 96-well plate. Cells were added at an assay density of 1 × 10^4 cells/mL whereas sample/standard was added to achieve the final concentration of 20 μg/mL. The plate was incubated at 37 °C for 72 h in humidified 5% carbon dioxide incubator (Panasonic, Japan MCO-18 AC-PE). Vincristine and 1% DMSO in PBS were used as positive and negative controls respectively. After incubation, 20 μL of pre-filter sterilized MTT solution (4 mg/mL in distilled water) was added in plates and incubated for 4 h at 37 °C in CO2 incubator. Later, colored formazan crystals were separated by removing supernatant and dissolved in 100 μL of DMSO. Reaction was allowed to stand for 1 h to ensure complete dissolution and absorbance was measured at 540 nm using microplate reader (Biotech USA, Elx 800).

isolated lymphocytes = assay: Cytotoxicity against isolated lymphocytes (MTT assay); assay type: cell-based, human; settings: 24 h
Protocol: Lymphocytes were isolated using previously described protocol with some modifications. Informed consent was obtained from volunteers and procedure was conducted according to international ethical guidelines after gaining approval from the ethical committee of the Quaid-i-Azam University. A volume of 3 mL of blood was obtained from a healthy donor by venipuncture and diluted (1:1) with PBS. It was layered over 2 mL Histopaque-1077 and centrifuged at 800 × g for 20 min. The buffy coat was aspirated into 5 mL of PBS and centrifuged at […] for 4 min to pellet the lymphocytes. The pellet was suspended in 1 mL of RPMI-1640 and cell density was adjusted to get 1 × 10^5 cells/mL. For cytotoxicity determination, 20 μL of samples (20 μg/mL) or vincristine or 1% DMSO in PBS and 180 μL of lymphocyte suspension were incubated in 96-well plate at 37 °C for 24 h in humidified 5% carbon dioxide incubator (Panasonic, Japan MCO-18 AC-PE). Phytohaemagglutinin (PHA) was added in medium to stimulate lymphocyte growth. Afterwards, MTT assay was done as described above. IC50 values were determined using 3-fold dilutions of the samples.

[1] = tested on: promastigotes of Leishmania tropica kwh 23; assay: Antileishmanial activity (MTT assay); assay type: cell-based; settings: 72 h; for Antileishmanial % growth inhibition (mortality, lethality): 20 μg/mL; for Antileishmanial LC50: MTT
Protocol: Antileishmanial activity against the promastigotes of Leishmania tropica kwh 23 was evaluated by a quantitative colorimetric assay using 3-(4,5-dimethylthiazol-2-yl)-2, 5-diphenyl tetrazolium bromide (MTT) with minor modifications. […] […] Negative control wells contained 1% DMSO in PBS. All samples were run in triplicate. Afterwards, plates were incubated for 4 h at 24 °C with 20 μL of MTT (4 mg/mL in distilled water) to determine the cell viability. Supernatant from each well was carefully removed leaving behind formazan crystals. Colored formazan crystals were dissolved in 100 μL of DMSO by setting those aside for 1 h to ensure complete dissolution. Cell viability was estimated by measuring absorbance at 540 nm using microplate reader and percentage growth inhibition was calculated.

[2] = tested on: Leishmania tropica kwh 23 promastigotes; assay: Photosensitizing effect against leishmania; assay type: cell-based; settings: for Photosensitizing effect % growth inhibition, Sunlight with IR filter: 15 min; for Photosensitizing effect % growth inhibition, Sunlight: 15 min sunlight
Protocol: Photosensitizing effect of tributyltin (IV) compounds was determined in three parallel groups. Samples and controls were exposed for 15 min to sunlight (168 W/m^2 of sun intensity) or sunlight with IR filter or dark conditions. The relative intensity of sunlight was measured by a CCD spectrometer (Ocean Optics, model HR4000). Later, plates were incubated at 25 °C for 72 h and cell viability was determined by MTT assay as given above. In this assay, samples were tested at concentrations showing less than 55% inhibition in primary antileishmanial assay to exclude false positive.

Streptomyces 85E = assay: Protein kinase inhibition assay (Streptomyces disc assay); assay type: cell-based; settings: for MIC for PK inhibition: minimum inhibitory concentration
Protocol: Protein kinase inhibitory activity of the tributyltin (IV) compounds was measured against Streptomyces 85E strain using previously described protocol. Culture of Streptomyces 85E was refreshed in tryptic soy broth and 100 μL of this was swabbed on sterile ISP4 medium under aseptic conditions. […] Diameter (mm) of zone of inhibition (ZOI) around all samples and controls was measured as clear zone (CZ) and bald zone (BZ). […] BZ is indicative of PK inhibition.

[3] = 6.25 μg/disc, BZ indicative of PK inhibition
[4] = 50 μg/disc, BZ indicative of PK inhibition, (-) shows no ZOI

| SMILES | HepG2 % growth inhibition (HepG2 cell line; 72 h) [%] | HepG2 IC50 (HepG2 cell line; 72 h, 3-fold dilutions) [µg/mL] | Antileishmanial % growth inhibition (mortality, lethality) [1] [%] | Antileishmanial LC50 [1] [µg/mL] | Photosensitizing effect % growth inhibition, Control ([2]; 0.092 μg/mL) [%] | Photosensitizing effect % growth inhibition, Dark ([2]; 0.092 μg/mL) [%] | Photosensitizing effect % growth inhibition, Sunlight with IR filter ([2]; 0.092 μg/mL) [%] | Photosensitizing effect % growth inhibition, Sunlight ([2]; 0.092 μg/mL) [%] | ZOI BZ (bald zone) (Streptomyces 85E; [3]) [mm] | ZOI CZ (clear zone) (Streptomyces 85E; 50 μg/disc, (-) shows no ZOI) [mm] | MIC for PK inhibition (Streptomyces 85E) [μg/disc] | also measured |
| --- | --- | --- | --- | --- | --- | --- | --- | --- | --- | --- | --- | --- |
| CCC[CH2][Sn]([CH2]CCC)([CH2]CCC)[O]C(=O)/C=C\C(=O)Nc1ccc(C(=O)OCC)cc1 [Ch-431, ethyl (Z)-4-(4-oxo-4-((tributylstannyl)oxy)but-2-enamido)benzoate] | 96.2 ± 2.23 | 5.48 ± 0.16 | 97.5 ± 2.75 | 0.078 ± 0.002 | 50.7 ± 1.25 | 51.5 ± 1.35 | 47.5 ± 0.99 | 53.2 ± 1.55 | 26 ± 0.16 | 31 ± 0.78 | 0.049 ± 0.002 | THP-1 % growth inhibition (THP-1 cell line): 42.7 ± 1.13%; Isolated lymphocytes % growth inhibition (isolated lymphocytes; 20 μg/mL): 10.7 ± 1.17ǂ %; ZOI CZ (clear zone) (Streptomyces 85E; 6.25 μg/disc, (-) shows no ZOI): 10 ± 0.33 mm; ZOI BZ (bald zone) (Streptomyces 85E; [4]): 33 ± 1.15 mm |
| CCC[CH2][Sn]([CH2]CCC)([CH2]CCC)[O]C(=O)COc1ccc(OCC(=O)[O][Sn]([CH2]CCC)([CH2]CCC)[CH2]CCC)cc1 [Ch-409, bis(tributylstannyl) 2,2’-(1,4-phenylenebis(oxy))diacetate] | 99.5 ± 3.15 | 0.08 ± 0.001 | 97.5 ± 1.98 | 0.954 ± 0.158 | – | – | – | – | 30 ± 1.17 | 30 ± 1.75 | 0.781 ± 0.002 | THP-1 % growth inhibition (THP-1 cell line): 19.4 ± 1.41%; Isolated lymphocytes IC50 (isolated lymphocytes): 15.18 ± 0.75ǂ μg/mL; Photosensitizing effect % growth inhibition, Control ([2]; 0.55 μg/mL): 52.05 ± 1.98%; Photosensitizing effect % growth inhibition, Dark ([2]; 0.55 μg/mL): 56.9 ± 0.02%; Photosensitizing effect % growth inhibition, Sunlight with IR filter ([2]; 0.55 μg/mL): 47.5 ± 1.56%; Photosensitizing effect % growth inhibition, Sunlight ([2]; 0.55 μg/mL): 57.63 ± 1.99%; ZOI CZ (clear zone) (Streptomyces 85E; 6.25 μg/disc, (-) shows no ZOI): 12 ± 0.19 mm; ZOI BZ (bald zone) (Streptomyces 85E; [4]): 31 ± 1.5 mm |
| CCC[CH2][Sn]([CH2]CCC)([CH2]CCC)[O]C(=O)c1ccccc1C(=O)Nc1cccc2ccccc12 [Ch-450, tributylstannyl 2-(naphthalene-1-ylcarbamoyl)benzoate] | 98.5 ± 1.85 | 2.81 ± 0.34 | 97.4 ± 1.35 | 0.361 ± 0.017 | 24.5 ± 1.63 | 26.34 ± 0.15 | 20.7 ± 0.43 | 32.12 ± 1.28 | 28 ± 2.5 | 32 ± 1.13 | 0.195 ± 0.001 | Isolated lymphocytes % growth inhibition (isolated lymphocytes; 20 μg/mL): 11.7 ± 0.05ǂ % |
| CC(C)CCCCCCCCC[C@@H]1CC(=O)N[C@@H](CCC(=O)O)C(=O)N[C@@H](CC(C)C)C(=O)N[C@H](CC(C)C)C(=O)N[C@@H](C(C)C)C(=O)N[C@@H](CC(=O)O)C(=O)N[C@H](CC(C)C)C(=O)N[C@@H](CC(C)C)C(=O)O1 [Surfactin, reference compound] (EL[dL]VD[dL]L; linker N-C via X1) | – | – | – | – | – | – | – | – | – | – | – | ZOI BZ (bald zone) (Streptomyces 85E; Surfactin positive control, printed 10 μg/mL): 23 ± 1.98 mm |
| CCC[CH2][Sn]([CH2]CCC)([CH2]CCC)[O]C(=O)/C=C\C(=O)Nc1cccc(C)c1C [Ch-459, tributylstannyl (Z)-4-((2,3-dimethylphenyl)amino)-4-oxobut-2-enoate] | 96.5 ± 4.66 | 0.62 ± 0.005 | 97.9 ± 3.99 | 0.323 ± 0.002 | 20.1 ± 0.59 | 22.7 ± 1.05 | 30.14 ± 1.47 | 25.5 ± 1.75 | 30 ± 0.24 | 35 ± 0.99 | 0.391 ± 0.004 | Isolated lymphocytes IC50 (isolated lymphocytes): 5.78 ± 0.34ǂ μg/mL |
| CC[C@]1(O)C[C@H]2CN(CCc3c([nH]c4ccccc34)[C@@](C(=O)OC)(c3cc4c(cc3OC)N(C=O)[C@H]3[C@@](O)(C(=O)OC)[C@H](OC(C)=O)[C@]5(CC)C=CCN6CC[C@]43[C@@H]65)C2)C1 [Vincristine, reference compound] | – | – | – | – | – | – | – | – | – | – | – | inhibition at 20 µg/mL (THP-1 cell line; Homo sapiens, THP-1, 20 μg/mL, read-out: THP-1 % growth inhibition): 100%; inhibition at 20 µg/mL (isolated lymphocytes; Homo sapiens, Lymphocyte, 20 μg/mL, read-out: Isolated lymphocytes % growth inhibition): 76.3 ± 3.65%; IC50 (isolated lymphocytes; Homo sapiens, Lymphocyte): 6.66 ± 0.09 µg/mL (≈ 8.07 µM) |
| COc1cccc2c1C(=O)c1c(O)c3c(c(O)c1C2=O)C[C@@](O)(C(=O)CO)C[C@@H]3O[C@H]1C[C@H](N)[C@H](O)[C@H](C)O1 [Doxorubicin, reference compound] | – | – | – | – | – | – | – | – | – | – | – | inhibition at 20 µg/mL (HepG2 cell line; Homo sapiens, HepG2, 20 μg/mL, 72 h, read-out: HepG2 % growth inhibition): 97.2 ± 1.14%; IC50 (HepG2 cell line; Homo sapiens, HepG2, 72 h, 3-fold dilutions): 5.36 ± 0.75 µg/mL (≈ 9.86 µM) |
